Laboratory results: patent US7763652B2, “Prostaglandin derivatives” (Taisho Pharmaceutical Co., Ltd., priority 2002, dated 2010)

Tested on: male cynomolgus monkeys
Test: Sleep-inducing test by cisternal administration
Assay type: in vivo
Conditions: cisternal infusion; for Sleep time: sleep time over three hours after administration, four male cynomolgus monkeys; for Number of slept animals: three hours after administration
Protocol: Sleep-Inducing Test by Cisternal Administration
Four male cynomolgus monkeys weighing 2.0-3.5 kg were individually placed in cages. The behaviors of the respective animals were recorded by videotape from one hour before drug administration to three hours after drug administration. Compound 16 was dissolved in physiological saline solution and sterilized using a Minipore filter. The drug was cisternally infused into the monkeys anesthetized with isoflurane inhalation. The dose was 10 μg/0.1 ml per monkey and 100 μg/0.1 ml per monkey. The same dose of the vehicle was infused cisternally to the control group. The test schedule was carried out according to the following protocol.
Week 1: Group treated with vehicle
Week 2: Group treated with 10 μg of Compound 16/monkey
Week 3: Group treated with 100 μg of Compound 16/monkey
The sleep times at three hours after administration were determined by playing back the recorded videotape and measuring the times (second) during which the animals relaxed with their both eyes closed, which are shown in Table 2.

Which Sleep time (10 μg/0.1 ml per monkey) does the source give for O=C(O)C#CCCSCC1C(Cl)CC(O)C1C#CC(O)C1CCCCC1 (stereo not drawn) [Compound 16, 9-Deoxy-9β-chloro-16,17,18,19,20-pentanor-15-cyclohexyl-2,2,3,3,13,14-hexadehydro-6-thia-PGF1α] here?
The Sleep time was 293 s.

What about the “Number of slept animals” value (10 μg/0.1 ml per monkey) of the same compound?
Its value is 3/4.

And the Sleep time (100 μg/0.1 ml per monkey)?
Its Sleep time is 1734 s.

And the “Number of slept animals” value (100 μg/0.1 ml per monkey)?
The value was 4/4.
